In patent US6264991A, “Compositions and methods for treating intracellular infections” (priority 1998, dated 2001):
Values after ≈ are worked out from the molar mass of the structure shown. Values joined by “and” are separate entries in the source; they are usually repeats but may differ in a detail not shown here. Equal entries are not always repeated. Where two headings read alike, the source gives them in different places.

Tests used:
[1] = system: Mycobacterium tuberculosis H37Rv; experiment: Minimal inhibitory concentration (Etest); format: cell-based, Mycobacterium tuberculosis H37Rv (ATCC 27294)
Text: Mycobacterium tuberculosis H37Rv (ATCC 27294, SRI #1345) was maintained on Middlebrook 7H1O agar slants, containing 0.5% glycerol and 10% OADC (Difco).

[2] = system: M. tuberculosis H37Rv; conditions: free rifampicin, all concentrations
[3] = system: M. tuberculosis H37Rv; conditions: free drug, all three concentrations (0.25, 0.75, 2.0 μg/ml)
[4] = system: M. tuberculosis H37Rv; conditions: for log10 CFU: individual mice; for log10 CFU / Mean log10 CFU: day 26
[5] = system: Mycobacterium tuberculosis; experiment: MIC for rifampicin, tuberculosis in primates

## CO[C@H]1/C=C/O[C@@]2(C)Oc3c(C)c(O)c4c(O)c(c(/C=N/N5CCN(C)CC5)c(O)c4c3C2=O)NC(=O)/C(C)=C\C=C\[C@H](C)[C@H](O)[C@@H](C)[C@@H](O)[C@@H](C)[C@H](OC(C)=O)[C@@H]1C [Rifampicin]
[1]
  MIC: 0.06 to 0.25 mg/L (≈ 0.0729 to 0.304 µM)
[1]; Etest, read-out: minimal inhibitory concentration (MIC)
  MIC: 0.06 to 0.25 mg/L (≈ 0.0729 to 0.304 µM)
[2]
  reduction of CFUs, MM6: significant reduction of CFUs
[3]
  reduction in CFUs, J774: significant reduction in CFUs
[4]; oral 0.42 mg/kg daily, 0.42 mg/kg
  log10 CFU: 5.86 log10 CFU and 5.66 log10 CFU and 5.59 log10 CFU and 5.72 log10 CFU and 5.95 log10 CFU and 5.88 log10 CFU and 5.7 log10 CFU and 6.15 log10 CFU
[4]; oral 0.42 mg/kg daily
  Mean log10 CFU: 5.62 log10 CFU
[4]; oral 1.25 mg/kg daily, 1.25 mg/kg
  log10 CFU: 5.97 log10 CFU and 5.71 log10 CFU and 5.69 log10 CFU and 5.64 log10 CFU and 5.47 log10 CFU and 5.44 log10 CFU and 5.62 log10 CFU and 5.88 log10 CFU and 5.72 log10 CFU
[4]; oral 1.25 mg/kg daily
  Mean log10 CFU: 5.68 log10 CFU
[4]; oral 5.0 mg/kg daily, 5 mg/kg
  log10 CFU: 5.45 log10 CFU and 5.31 log10 CFU and 5.10 log10 CFU and 5.43 log10 CFU and 5.06 log10 CFU and 5.18 log10 CFU and 5.20 log10 CFU and 5.51 log10 CFU and 5.32 log10 CFU
[4]; oral 5.0 mg/kg daily
  Mean log10 CFU: 5.27 log10 CFU
[4]; oral 10 mg/kg daily, 10 mg/kg
  log10 CFU: 4.27 log10 CFU and 4.72 log10 CFU and 4.15 log10 CFU and 4.00 log10 CFU and 3.48 log10 CFU and 4.54 log10 CFU and 3.30 log10 CFU and 3.00 log10 CFU and 4.48 log10 CFU
[4]; oral 10 mg/kg daily
  Mean log10 CFU: 3.99 log10 CFU
[4]; oral 5.0 and 10 mg/kg, 26 days post-infection
  reductions in viable M. tuberculosis H37Rv: significant reductions
[5]
  MIC: 0.06 to 0.25 mg/L (≈ 0.0729 to 0.304 µM)
